{"source": "paper PMC5675618", "about": "“Identification and validation of FGFR2 peptide for detection of early Barrett's neoplasia” (Oncotarget, 2017)", "key": {"[1]": {"test_system": "QhTERT cells that express FGFR2c", "assay": "Apparent dissociation constant by flow cytometry", "assay_type": "binding, human", "details": "0 to 200 nM in PBS in 25 nM increments, 4°C, 1 hour; mean fluorescence intensity by flow cytometry; non-linear fit R^2 = 0.96; representative of 3 independent experiments", "method": "We measured the apparent dissociation constant kd for peptide binding to cells to assess binding affinity. The Cy5.5-labeled peptide was serially diluted in PBS at concentrations ranging from 0 to 200 nM in 25 nM increments. QhTERT/FGFR2c cells (~10^5) were incubated with peptide at 4°C for 1 hour, washed with cold PBS, and the mean fluorescence intensities were measured using flow cytometry. The equilibrium dissociation constant kd=1/ka was calculated by performing a least squares fit of the data to the non-linear equation I=(I0+Imaxka[X])/([…]). I0 and Imax are the initial and maximum fluorescence intensities, corresponding to no peptide and at saturation, respectively, and [X] represents the concentration of the […] peptide. Prism 5.0 software (GraphPad Inc) was used to calculate kd."}, "[2]": {"test_system": "QhTERT cells that express FGFR2c", "assay": "Confocal fluorescence microscopy, binding to QhTERT cells that express FGFR2c", "assay_type": "cell-based, human", "source_text": "(§1) All human esophageal specimens were obtained with written, informed patient consent per approval and guidelines of the University of Michigan Institutional Review Board (IRB). Human non-dysplastic Barrett's esophagus (BE) cells immortalized with hTert (QhTERT) were obtained from the American Type Culture Collection (ATCC) and cultured in keratinocyte-serum free medium containing bovine pituitary extract and human recombinant EGF (ThermoFisher #17005042). QhTERT cells with stable expression of FGFR2b or FGFR2c were provided (DGB). We cultured these cells with keratinocyte-serum free medium containing bovine pituitary extract and human recombinant EGF (ThermoFisher #17005042) and added 1 μg/mL of puromycin-dihydrochloride (Invitrogen #A11138-03). All cells were cultured at 37°C in 5% CO2, and were passaged using 0.25% EDTA containing trypsin (Mediatech Inc). A hemocytometer was used to determine cell number. Peptide synthesis reagents were obtained from either Anaspec or AAPPTEC with the highest grade available (>99% purity) and used without further purification. Solvents and other chemical reagents were obtained from Sigma-Aldrich, unless otherwise stated.\n(§2) ~10^3 QhTERT/wt, QhTERT/FGFR2b, and QhTERT/FGFR2c cells were grown on cover glass to ~80% confluence. The cells were washed with PBS 1X and incubated with 1 μM of either peptide for 10 min at RT. The cells were then washed 3X in PBS, fixed with 4% paraformaldehyde (PFA) for 5 min, washed 1X with PBS, and then mounted on glass slides with ProLong Gold reagent containing DAPI (Invitrogen). Confocal fluorescence images were collected with Cy5.5 and DAPI filters (Leica Inverted SP5X 2-Photon FLIM confocal microscopes) using a 63X oil-immersion objective. Fluorescence intensities from 3 cells in each of 3 independent images were quantified using custom Matlab (Mathworks) software."}, "[3]": {"test_system": "QhTERT cells that express FGFR2b", "assay": "Confocal fluorescence microscopy, binding to QhTERT cells that express FGFR2b", "assay_type": "cell-based, human", "source_text": "as §1, §2"}, "[4]": {"test_system": "sections of human esophagus ex vivo", "assay": "Confocal microscopy of staining of human esophageal specimens ex vivo (SQ, BE, HGD, EAC)", "method": "Formalin-fixed sections of human esophageal specimens were deparaffinized, and antigen retrieval was performed using standard methods. Briefly, the sections were incubated in xylene for 3 min 3X, washed with 100% ethanol for 2 min 2X, and washed with 95% ethanol for 2 min 2X. Rehydration was performed by washing in dH2O for 5 min 2X. Antigen unmasking was performed by boiling the slides in 10 mM sodium citrate buffer with 0.05% Tween at pH 6.0, and then maintaining at sub-boiling temperature for 15 min. The slides were cooled for 30 min, and the sections were washed in dH2O for 3 min 3X and in PBS for 5 min. Blocking was performed with DAKO protein blocking agent (X0909, DAKO) for 1 hour at RT. The peptides were incubated at a concentration of 1 μM for 10 min at RT. The sections were washed in PBS for 3 min 3X, and incubated with 1:1000 dilution of monoclonal anti-FGFR2 (Abcam, ab58201) overnight at 4°C.\nThe sections were then washed in PBS for 5 min 3X. A 1:500 dilution of AF488-labeled secondary antibody (goat anti-mouse) was added to each section and incubated for 30 min at RT. The secondary antibody solution was removed by washing with PBS for 5 min 3X. The sections were then mounted with ProLong Gold reagent containing DAPI (Invitrogen). The mean fluorescence intensities from 3 boxes (dimensions of 30×30 μm^2) located completely within the surface epithelium of each specimen were measured. […] Serial sections were processed for routine histology (H&E), and were reviewed by an expert gastrointestinal pathologist (HDA)."}, "[5]": {"details": "1 μM peptide, 10 min at RT, confocal, 63X"}, "[6]": {"details": "compared with wild-type, log-transformed, ANOVA, 3 random cells on each of 3 slides"}}}
{"sequence": "SRRPASFRTARE [SRR^*-Cy5.5]", "values": [{"measurement": "Kd", "setting": "[1]", "value": 68, "unit": "nM"}, {"measurement": "cell surface fluorescence signal / binding", "setting": "[2]; [5]", "value": "strong signal"}, {"measurement": "mean fluorescence intensity versus control SPS^*-Cy5.5", "setting": "[2]; [6]", "value": "significantly greater mean fluorescence intensity"}, {"measurement": "cell surface fluorescence signal / binding", "setting": "[3]; [5]", "value": "strong signal"}, {"measurement": "mean fluorescence intensity versus control SPS^*-Cy5.5", "setting": "[3]; [6]", "value": "significantly greater mean fluorescence intensity"}, {"measurement": "mean T/B ratio, HGD and EAC versus BE and SQ", "setting": "[4]; 3 boxes of 30×30 μm^2, n = 28, 33, 22, 17 specimens of SQ, BE, HGD, EAC", "value": "significantly higher"}, {"measurement": "mean fluorescence intensity, HGD and EAC versus BE", "setting": "[4]; ANOVA, 4 means, log-transformed data, 3 boxes of 30×30 μm^2", "value": "significantly greater mean fluorescence intensity"}, {"measurement": "fluorescence intensity / staining, Barrett's esophagus (BE)", "setting": "[4]; BE, n = 33 specimens, peptide 1 μM, 10 min at RT, antibody 1:1000 overnight at 4°C", "value": "minimal fluorescence intensity"}, {"measurement": "fluorescence intensity / staining, esophageal adenocarcinoma (EAC)", "setting": "[4]; EAC, n = 17 specimens, peptide 1 μM, 10 min at RT, antibody 1:1000 overnight at 4°C", "value": "strong signal"}, {"measurement": "fluorescence intensity / staining, high-grade dysplasia (HGD)", "setting": "[4]; HGD, n = 22 specimens, peptide 1 μM, 10 min at RT, antibody 1:1000 overnight at 4°C", "value": "strong signal"}, {"measurement": "fluorescence intensity / staining, squamous (SQ)", "setting": "[4]; SQ, n = 28 specimens, peptide 1 μM, 10 min at RT, antibody 1:1000 overnight at 4°C", "value": "minimal fluorescence intensity"}]}
